According to the supplement of paper PMC10307832:

Key:
Experiment in all cases: relative viability (nuclei count vs DMSO), 5 days (fraction); higher = more cells survive
[1] = compound: CC(C)C[C@@H](C(=O)N[C@H](C(=O)OC1CCCC1)c1ccccc1)[C@H](O)C(=O)NO [Tosedostat] + O=C(CCCCCCC(=O)Nc1ccccc1)NO [Vorinostat] (partner 1 µM)
In short: (§1)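 For relative viability, nuclei counts in treated wells were divided by those in vehicle wells. Lung cancer cell lines had been pin-tool dosed in 1536-well plates the day after seeding and cultured for 5 days, then fixed and stained in one step (final 0.05% Triton X-100, 1% formaldehyde, 1 ug/ml Hoechst) and imaged at 4×. Doses were one drug alone or a fixed anchor-drug dose plus five library-drug doses (not always all listed) in √10 steps, and values are duplicate-plate medians.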

[2] = compound: CC1=NN=C(O1)C2=NN=C(C=C2)N3CCC(CC3)OC4=C(C=CC(=C4)F)Cl + CCNC(=O)c1noc(-c2cc(C(C)C)c(O)cc2O)c1-c1ccc(CN2CCOCC2)cc1 [Luminespib] (partner 0.01 µM)
In short: as §1

[3] = compound: CC1=NN=C(O1)C2=NN=C(C=C2)N3CCC(CC3)OC4=C(C=CC(=C4)F)Cl + O=C(c1cc(Cc2n[nH]c(=O)c3ccccc23)ccc1F)N1CCN(C(=O)C2CC2)CC1 [Olaparib] (partner 8 µM)
In short: as §1

[4] = compound: CC1=NN=C(O1)C2=NN=C(C=C2)N3CCC(CC3)OC4=C(C=CC(=C4)F)Cl + Cc1cc(Nc2cc(N3CCN(C)CC3)nc(Sc3ccc(NC(=O)C4CC4)cc3)n2)n[nH]1 [Tozasertib] (partner 0.1 µM)
In short: as §1

| Cell Line | relative viability ([1]; first compound 0.02 µM) | relative viability ([1]; first compound 0.06325 µM) | relative viability ([1]; first compound 0.2 µM) | relative viability ([1]; first compound 0.6325 µM) | relative viability ([1]; first compound 2 µM) | relative viability ([2]; first compound 0.253 µM) | relative viability ([2]; first compound 0.8 µM) | relative viability ([2]; first compound 2.53 µM) | relative viability ([2]; first compound 8 µM) | relative viability ([3]; first compound 0.253 µM) | relative viability ([3]; first compound 0.8 µM) | relative viability ([3]; first compound 2.53 µM) | relative viability ([3]; first compound 8 µM) | relative viability ([4]; first compound 0.253 µM) | relative viability ([4]; first compound 0.8 µM) | relative viability ([4]; first compound 2.53 µM) | relative viability ([4]; first compound 8 µM) |
| --- | --- | --- | --- | --- | --- | --- | --- | --- | --- | --- | --- | --- | --- | --- | --- | --- | --- |
| NCI-H1395 | 0.773 | 0.77 | 0.743 | 0.742 | 0.595 | 0.431 | 0.725 | 0.678 | 0.82 | 0.482 | 0.539 | 0.445 | 0.448 | 0.69 | 0.581 | 0.72 | 0.683 |
| NCI-H2405 | 1.06 | 1.12 | 0.955 | 0.841 | 0.798 | 0.558 | 0.434 | 0.534 | 0.612 | 0.586 | 0.469 | 0.514 | 0.499 | 0.415 | 0.325 | 0.395 | 0.424 |
| NCI-H2126 | 0.635 | 0.822 | 0.81 | 0.701 | 0.79 | 0.826 | 0.795 | 0.734 | 0.828 | 0.816 | 0.697 | 0.767 | 0.76 | 0.765 | 0.786 | 0.763 | 0.715 |
| SW 900 | 0.37 | 0.35 | 0.488 | 0.515 | 0.568 | – | – | 0.175 | 0.175 | – | 0.801 | 0.776 | 0.802 | – | – | 0.415 | 0.477 |
| NCI-H460 | 0.83 | 0.708 | 0.676 | 0.699 | 0.714 | 0.0224 | 0.0328 | 0.0243 | 0.0233 | 0.15 | 0.155 | 0.199 | 0.198 | 0.0757 | 0.107 | 0.144 | 0.129 |
| NCI-H1993 | 0.732 | 0.728 | 0.588 | 0.608 | 0.548 | 0.636 | 0.829 | 0.74 | 0.725 | 0.894 | 0.758 | 0.855 | 0.856 | 0.558 | 0.603 | 0.635 | 0.571 |
| LU99A | 0.573 | 0.583 | 0.445 | 0.388 | 0.381 | 0.224 | 0.227 | 0.246 | 0.199 | 0.214 | 0.294 | 0.277 | 0.299 | 0.279 | 0.271 | 0.268 | 0.287 |
| NCI-H520 | 0.737 | 0.77 | 0.59 | 0.839 | 0.761 | 0.207 | 0.217 | 0.199 | 0.2 | 0.308 | 0.346 | 0.294 | 0.259 | – | 0.38 | 0.398 | 0.443 |
| HCC-827 | 0.545 | 0.94 | 0.861 | 0.73 | 0.718 | 0.428 | 0.228 | 0.349 | 0.339 | 0.396 | 0.242 | 0.401 | 0.386 | 0.174 | 0.161 | 0.171 | 0.144 |
| NCI-H1975 | 0.741 | 0.742 | 0.678 | 0.611 | 0.622 | – | – | 0.224 | 0.196 | 0.466 | 0.574 | 0.518 | 0.533 | – | 0.595 | 0.48 | 0.261 |
| NCI-H2085 | – | 0.831 | 0.748 | 0.897 | 0.74 | 0.499 | – | 0.339 | 0.216 | 0.636 | 0.604 | 0.709 | 0.553 | 0.454 | 0.614 | 0.538 | 0.515 |
| NCI-H1734 | 0.949 | 0.757 | 0.886 | 0.612 | 0.514 | 0.237 | 0.206 | 0.249 | 0.189 | 0.544 | 0.509 | 0.57 | 0.472 | 0.262 | 0.287 | 0.216 | 0.247 |
| NCI-H650 | 0.752 | 0.528 | 0.416 | 0.334 | 0.308 | 0.77 | 0.685 | 0.703 | 0.793 | 0.39 | 0.227 | 0.407 | 0.382 | 0.724 | 0.698 | 0.676 | 0.682 |
| LCLC-103H | 0.787 | 0.773 | 0.761 | 0.776 | 0.784 | 0.678 | 0.74 | 0.537 | 0.582 | 0.512 | 0.509 | 0.514 | 0.465 | 0.411 | 0.362 | 0.356 | 0.324 |
| LCLC-97TM1 | 0.682 | 0.602 | 0.533 | 0.532 | 0.47 | 0.394 | 0.364 | 0.336 | 0.346 | 0.369 | – | 0.267 | 0.258 | 0.182 | 0.137 | 0.172 | 0.207 |
| SK-LU-1 | 0.897 | 0.721 | 0.717 | 0.677 | 0.717 | 0.218 | – | 0.207 | 0.185 | 0.356 | 0.341 | 0.348 | 0.41 | 0.325 | – | 0.275 | 0.25 |
| HOP-62 | 0.819 | 0.516 | 0.612 | 0.561 | 0.372 | 0.63 | 0.638 | 0.697 | 0.634 | 0.388 | 0.116 | 0.192 | 0.279 | 0.296 | 0.288 | 0.205 | 0.222 |
| NCI-H23 | 0.646 | 0.52 | 0.707 | 0.502 | 0.51 | 0.222 | 0.199 | 0.229 | 0.189 | 0.164 | 0.272 | 0.327 | 0.302 | 0.312 | – | 0.275 | 0.46 |
